Assays:
SREBP-1c mRNA = experiment: Real time PCR, HepG2 SREBP-1c mRNA; assay type: cell-based, human; details: HepG2, Mdivi-1 50 μM, 24 hours
From the text: (§1) Human cells and mouse liver was homogenized with TriZolTM (Life Technologies, Grand Island, N.Y.) to isolate RNA. QuantiTectTM Reverse Transcription Kit (Qiagen, Hilden, Germany) was used for reverse transcription on total RNA. cDNA was generated using the Quanta gScriptTM cDNA Synthesis Kit (Bioscience Inc., Gaithersburg, Md.). mRNA levels were quantified on a 7900HT real-time PCR system (Thermo Fisher Scientific) using TaqManTM real-time PCR with the following probes: Hs02758991_g1 (human GAPDH); Mm99999915_g1 (mouse Gapdh); Hs00236329 m1 (human BCL2L1); Hs00247147_m1 (human DRP1); Hs00545399_m1 (human PCSK9); Mm01263610_m1 (mouse Pcsk9); Hs00168352_m1 (human HMGCR); […]); Hs00181192_m1 (human LDLR); Mm00440169_m1 (mouse Ldlr); Hs01088691_m1 (human SREBP1); Mm00550338_m1 (mouse Srebp1); Hs00231674_m1 (human SREBP1a); custom primer (human SREBP1c); Hs01081784_m1 (human SREBP2); Mm01306292_m1 (mouse Srebp2); Hs01005622_m1 (human FASN); […]); Hs00167041_m1 (human HNF1A); Mm00493434_m1 (mouse Hnf1a); Hs00171168 (human APOE); Hs01059118_m1 (human ABCA1); Hs01103582_s1 (human JUN). Mouse SREBP-1c was analyzed by SYBERTM green PCR with the following primers: [NT] All expression levels were normalized to GAPDH using the ΔΔCT method.

PCSK9 secretion = experiment: SILAC mass spectrometry of HepG2 secreted proteins: PCSK9; assay type: cell-based, human; details: HepG2, Mdivi-1 50 μM, 24 hours, vs vehicle
Experimental: To assess DRP1 involvement in protein secretion, secretome changes were quantified using stable isotope labeling by amino acids in cell culture (SILAC).
HepG2 cells were cultured on 100 mm dishes at a confluency of ˜60-70%. […] Media was prepared with DMEM (no lysine, no arginine; A14431-01, Thermo Fisher Scientific) to which L-glutamine (2 mM, Lonza, Walkersville, Md.), L-arginine HCl (0.17 mM; Sigma), either light L-lysine HCl (0.339 mM; Sigma) or heavy L-lysine 2HCl (0.339 mM; Cambridge Isotopes, Tewksbury, Mass.), 10% dialyzed FBS (Thermo Fisher Scientific), 1% pen/strep was added. Media was changed every two days, and cells were split as required. […]
The peptide sample was diluted [1/10-fold] and analyzed with the high resolution/accuracy Q Exactive™ mass spectrometer fronted with a Nanospray™ FLEX ion source, and coupled to an Easy-nLC1000 HPLC pump (Thermo Fisher Scientific). […] The peptide false discovery rate (FDR) was calculated using Percolator™ provided by Proteome Discoverer. […] Quantification of SILAC peak pairs was also done in Proteome Discoverer™ using up to the top three most abundant peptides. […] Significant changes were determined as proteins with an average value (ratio of Mdivi-1 treated/vehicle treated peak intensity) plus two standard deviations being less than the control value (vehicle treated/vehicle treated peak intensity=1). […]

HepG2 cells = experiment: Mitochondrial membrane potential by TMRE, HepG2; assay type: cell-based, human; details: HepG2, Mdivi-1 50 μM, 24 hours
Experimental: Mitochondrial membrane potential was assessed by TMRE reagent (Abcam) as previously described^21.

[1] = tested on: HNF1A, SREBP-2, and SREBP-1a; experiment: Real time PCR, PCSK9 regulating transcription factors; assay type: cell-based; details: HepG2 and primary human hepatocytes, Mdivi-1 50 μM, 24 hours
From the text: as §1

[2] = tested on: ischemia/reperfusion injury-induced myocardial infarction; details: mice; cited from earlier work
cellular PCSK9 protein = experiment: Western blot, HepG2 cellular PCSK9 protein; assay type: cell-based, human; details: HepG2, Mdivi-1 50 μM, 24 hours
LDLR protein = experiment: Western blot, HepG2 LDLR protein; assay type: cell-based, human; details: HepG2, 24 hours; Mdivi-1 50 μM, pitavastatin 1 μM, T0901317 1 μM

SMILES: COc1cc(-n2c(S)nc3ccccc3c2=O)c(Cl)cc1Cl [Mdivi-1, 3-(2,4-Dichloro-5-methoxyphenyl)-2,3-dihydro-2-thioxo-4(1H)-quinazolinone]
- SREBP-1c mRNA (SREBP-1c mRNA): strongly reduced
- PCSK9 secretion reduction (SILAC) (PCSK9 secretion): −74%
- Mitochondrial function, assessed by mitochondrial membrane potential (HepG2 cells): not noticeably different
- Expression of HNF1A, SREBP-2, and SREBP-1a [1]: not changed
- ischemia/reperfusion injury-induced myocardial infarction [2]: reduces
- Cellular PCSK9 protein abundance (cellular PCSK9 protein): reduced
- HepG2 LDLR protein increase (LDLR protein): 5.8 fold
